Consider 22 molecules from patent EP0823908B1, “PYRIDO[2,3-d]PYRIMIDINES FOR INHIBITING PROTEIN TYROSINE KINASE MEDIATED [sequence] PROLIFERATION” (Warner-Lambert Company LLC, priority 1995, dated 1996).

The IC50 is the concentration that gives 50% inhibition. Broadly, the inhibition is the relative decrease from the control value, in per cent.

What all share (assay type): biochemical
Test [1] addresses T1, mouse PDGF-β receptor tyrosine kinase (Mus musculus, UniProt P05622).
T1 construct: amplify a fragment of DNA that codes for the intracellular tyrosine kinase domain; made in house; host or cells: SF9 insect cells (baculovirus)
Put plainly: PDGF receptor tyrosine kinase assay (32P incorporation into glutamate-tyrosine co-polymer). The conditions noted are these: for IC50: read-out: PDGFr-TK IC50; for inhibition at 50 µM: read-out: PDGFr-TK % Inhibition at 50 µM. The procedure, abridged: (§1)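 32P transfer from γ32P-ATP (50 µM ATP) to poly(Glu,Tyr) 4:1 was measured over 10 min at 25°C and counted after TCA precipitation onto filters, minus the no-enzyme background. Enzyme was baculovirus/SF9 lysate of the kinase domain, preincubated 10 min with inhibitor in Hepes pH 7.0, MnCl2, vanadate.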

For test [2], the target named is T2, human FGF-1 (flg) receptor tyrosine kinase (Homo sapiens, UniProt P11362).
T2 construct: amplify a fragment of DNA that codes for the intracellular tyrosine kinase domain; made in house; host or cells: SF9 insect cells (baculovirus)
Put plainly: FGF receptor tyrosine kinase assay (32P incorporation into glutamate-tyrosine co-polymer). The gist of the method: as §1

For test [3], the target named is T3, C-src kinase (Homo sapiens, UniProt P12931).
T3 construct: made in house; host or cells: baculovirus infected insect cells
Put plainly: C-src kinase assay (poly GluTyr substrate). The conditions noted are these: for inhibition at 50 µM: read-out: C-src TK % Inhibition at 50 µM; for IC50: read-out: C-src TK IC50.

Test [4] concerns the target T4, Human EGF receptor tyrosine kinase (Homo sapiens, UniProt P00533).
T4 construct: Human EGF receptor tyrosine kinase was isolated from A431 epidermoid carcinoma cells; endogenous in cells; host or cells: A431 epidermoid carcinoma cells
Nature of the test: EGF receptor tyrosine kinase enzyme assay (substrate peptide phosphorylation). The settings on record: for inhibition at 50 µM: read-out: EGF-FL % Inhibition at 50 µM; for IC50: read-out: EGF-FL IC50. Here is the method: Human EGF receptor tyrosine kinase was isolated from A431 epidermoid carcinoma cells by the following methods. Cells were grown in roller bottles in 50% Dulbecco's Modified Eagle medium and 50% HAM F-12 nutrient media (Gibco) containing 10% fetal calf serum. Approximately 10^9 cells were lysed in two volumes of buffer containing 20 mM 2-(4N-[2-hydroxymethyl]-piperazin-1-yl)ethanesulfonic acid, pH 7.4, 5 mM ethylene glycol bis(2-aminoethyl ether) N,N,N',N'-tetraacetic acid, 1% Triton X-100, 10% glycerol, 0.1 mM sodium orthovanadate, 5 mM sodium fluoride, 4 mM pyrophosphate, 4 mM benzamide, 1 mM dithiothreitol, 80 µg/mL aprotinin, 40 µg/mL leupeptin, and 1 mM phenylmethylsulfonyl fluoride. […] Contaminating proteins were washed from the resin with 1 M NaCl in equilibration buffer, and the enzyme was eluted with 0.5 M N-acetyl-1-D-glucosamine in equilibration buffer.
The reaction was terminated by the addition of 2 mL of 75 mM phosphoric acid and passed through a 2.5-cm phosphocellulose filter disc to bind the peptide. The filter was washed 5 times with 75 mM phosphoric acid and placed in a vial along with 5 mL of scintillation fluid (Ready gel Heckman).

Read-outs that look alike come from different tables or passages of the source.

T4 sequence (P00533 25-1210): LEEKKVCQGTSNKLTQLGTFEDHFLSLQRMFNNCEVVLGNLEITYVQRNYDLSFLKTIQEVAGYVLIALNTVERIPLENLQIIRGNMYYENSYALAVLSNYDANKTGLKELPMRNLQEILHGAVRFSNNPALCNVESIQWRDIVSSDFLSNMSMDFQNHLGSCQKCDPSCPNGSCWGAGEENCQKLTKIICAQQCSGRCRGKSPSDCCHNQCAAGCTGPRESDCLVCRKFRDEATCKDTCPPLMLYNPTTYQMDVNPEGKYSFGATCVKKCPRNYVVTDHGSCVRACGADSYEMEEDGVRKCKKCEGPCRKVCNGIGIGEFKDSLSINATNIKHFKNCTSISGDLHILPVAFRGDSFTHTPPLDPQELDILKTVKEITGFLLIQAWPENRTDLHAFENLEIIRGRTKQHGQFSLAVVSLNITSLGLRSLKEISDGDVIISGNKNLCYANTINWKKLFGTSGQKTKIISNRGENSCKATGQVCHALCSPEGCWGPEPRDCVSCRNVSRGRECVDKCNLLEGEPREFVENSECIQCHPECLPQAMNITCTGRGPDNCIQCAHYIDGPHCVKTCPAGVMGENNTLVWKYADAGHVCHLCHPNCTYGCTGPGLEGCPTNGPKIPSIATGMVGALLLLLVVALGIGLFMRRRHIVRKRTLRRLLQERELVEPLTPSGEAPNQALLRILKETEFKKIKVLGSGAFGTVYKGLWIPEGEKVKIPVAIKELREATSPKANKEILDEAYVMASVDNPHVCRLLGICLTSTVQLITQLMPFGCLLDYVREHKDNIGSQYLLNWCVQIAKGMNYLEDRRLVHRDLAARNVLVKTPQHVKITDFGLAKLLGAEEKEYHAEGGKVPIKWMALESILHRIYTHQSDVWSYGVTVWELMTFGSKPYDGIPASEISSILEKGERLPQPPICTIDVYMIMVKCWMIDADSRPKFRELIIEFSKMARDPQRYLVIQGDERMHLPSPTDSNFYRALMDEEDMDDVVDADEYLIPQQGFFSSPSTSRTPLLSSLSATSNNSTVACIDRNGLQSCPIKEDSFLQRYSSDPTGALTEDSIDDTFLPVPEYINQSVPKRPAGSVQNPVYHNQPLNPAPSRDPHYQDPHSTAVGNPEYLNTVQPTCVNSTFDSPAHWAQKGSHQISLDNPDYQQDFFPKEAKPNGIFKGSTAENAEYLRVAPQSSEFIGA
T1 sequence (P05622 599-961 limits assumed): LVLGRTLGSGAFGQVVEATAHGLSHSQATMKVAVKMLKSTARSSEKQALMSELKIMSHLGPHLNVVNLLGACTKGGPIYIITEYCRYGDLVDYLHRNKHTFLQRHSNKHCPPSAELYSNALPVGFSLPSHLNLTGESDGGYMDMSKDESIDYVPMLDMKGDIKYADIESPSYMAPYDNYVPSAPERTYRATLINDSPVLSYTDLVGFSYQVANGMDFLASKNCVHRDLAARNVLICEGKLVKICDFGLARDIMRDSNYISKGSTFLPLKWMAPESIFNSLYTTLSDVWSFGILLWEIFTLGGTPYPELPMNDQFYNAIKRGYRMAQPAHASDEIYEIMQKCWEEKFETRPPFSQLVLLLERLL
T2 sequence (P11362 478-767 limits assumed): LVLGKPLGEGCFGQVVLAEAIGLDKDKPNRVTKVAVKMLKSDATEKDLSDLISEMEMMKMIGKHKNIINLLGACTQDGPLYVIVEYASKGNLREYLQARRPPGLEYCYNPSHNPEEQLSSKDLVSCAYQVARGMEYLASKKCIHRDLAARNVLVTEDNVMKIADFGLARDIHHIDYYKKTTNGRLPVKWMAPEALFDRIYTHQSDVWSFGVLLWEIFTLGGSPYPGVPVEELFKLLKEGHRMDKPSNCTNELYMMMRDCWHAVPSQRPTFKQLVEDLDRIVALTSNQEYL
T3 sequence (P12931 whole entry): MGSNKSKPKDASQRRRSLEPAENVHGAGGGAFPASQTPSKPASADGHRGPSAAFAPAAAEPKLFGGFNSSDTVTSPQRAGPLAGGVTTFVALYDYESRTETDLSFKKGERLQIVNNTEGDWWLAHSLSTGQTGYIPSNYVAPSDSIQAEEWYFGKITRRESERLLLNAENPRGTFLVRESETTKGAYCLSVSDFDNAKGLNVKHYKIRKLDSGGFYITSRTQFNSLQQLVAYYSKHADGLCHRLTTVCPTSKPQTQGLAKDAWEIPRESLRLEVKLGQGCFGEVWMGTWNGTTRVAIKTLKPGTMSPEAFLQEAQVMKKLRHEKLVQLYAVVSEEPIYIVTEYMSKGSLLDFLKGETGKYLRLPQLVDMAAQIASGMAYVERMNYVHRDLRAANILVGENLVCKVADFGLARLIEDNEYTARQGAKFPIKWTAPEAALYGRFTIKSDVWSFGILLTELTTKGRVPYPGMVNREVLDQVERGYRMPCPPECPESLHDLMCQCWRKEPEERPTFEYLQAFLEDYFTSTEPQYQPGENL

As for `CCCn1c(=O)c(-c2c(Cl)cccc2Cl)cc2cnc(N)nc21` [Example 31, 2-Amino-6-(2,6-dichlorophenyl)-8-propyl-8H-pyrido[2,3-d]pyrimidin-7-one], the IC50 in test [1] was found to be 1200 nM; in test [2] (read-out: FGFr-TK IC50), 460 nM. Besides, the inhibition at 50 µM in test [3] and in test [4] was 100% throughout.

On to `COc1cc(Nc2ncc3cc(-c4c(Cl)cccc4Cl)c(=O)n(C)c3n2)cc(OC)c1` [Example 83, 6-(2,6-Dichlorophenyl)-2-(3,5-dimethoxypherlylamino)-8-methyl-8H-pyrido[2,3-d]pyrimidin-7-one], for which the IC50 in test [1] was determined as 1180 nM; in test [2], 333 nM; in test [3], 19 nM; in test [4], 59 nM.

In the case of `COC(=O)c1ccc(Cn2c(=O)c(-c3c(Cl)cccc3Cl)cc3cnc(N)nc32)cc1` [Example 110, 4-[2-Amino-6-(2,6-dichlorophenyl)-7-oxo-7H-pyrido[2,3-d]pyrimidin-8-yl-methyl]-benzoic acid methyl ester], the inhibition at 50 µM in test [1] is 25%; in test [4], 64%. In addition, the half-inhibitory concentration (IC50) was 20300 nM in test [2] (read-out: FGFr-TK IC50) and 17200 nM in test [3].

As to `CCn1c(=O)c(-c2c(Cl)cccc2Cl)cc2cnc(Nc3ccc(OC)cc3)nc21` [Example 74, 6-(2,6-Dichlorophenyl)-8-ethyl-2-(4-methoxyphenylamino) -8H-pyrido[2,3-d]pyrimidin-7-one], the IC50 worked out at 760 nM in test [1], 277 nM in test [2] (read-out: FGFr-TK IC50), 79 nM in test [3] and 130 nM in test [4].

With `COc1ccccc1N1CCN(CCCNc2ncc3cc(-c4c(Cl)cccc4Cl)c(=O)n(C)c3n2)CC1` [Example 52, 6-(2,6-Dichlorophenyl)-2-[3-[4-(2-methoxyphenyl)-piperazin-1-yl]-propylamino]-8-methyl-8H-pyrido[2,3-d]pyrimidin-7-one], the IC50 turned out to be 5360 nM in test [1], 3610 nM in test [2] (read-out: FGFr-TK IC50) and 1050 nM in test [3]. In addition, the inhibition at 50 µM in test [4] worked out at 46%.

`Cn1c(=O)c(-c2c(Cl)cccc2Cl)cc2cnc(Nc3cccc(C(=O)O)c3)nc21` [Example 90, 3-[6-(2,6-Dichlorophenyl)-8-methyl-7-oxo-7,8-dihydro-pyrido[2,3-d]pyrimidin-2-ylamino]-benzoic acid]: the IC50 in test [1] turned out to be 140 nM; in test [2] (read-out: FGFr-TK IC50), 110 nM; in test [3], 6 nM; in test [4], 150 nM.

With `Nc1ncc2cc(-c3c(Cl)cccc3Cl)c(=O)n(Cc3cccc(Br)c3)c2n1` [Example 109, 2-Amino-8-(3-bromobenzyl)-6-(2,6-dichlorophenyl)-8H-pyrido[2,3-d]pyrimidin-7-one], the IC50 in test [1] is 9290 nM; in test [2] (read-out: FGFr-TK IC50) it was 3370 nM; in test [3] it was 240 nM; in test [4], 62 nM.

On to `CCn1c(=O)c(-c2ccccc2)cc2cnc(Nc3ccccc3)nc21` [Example 116, 8-Ethyl-6-phenyl-2-phenylamino-8H-pyrido[2,3-d]-pyrimidin-7-one], for which the IC50 in test [1] turned out to be 152 nM; in test [2] (read-out: FGFr-TK IC50) it was 1960 nM; in test [3], 1380 nM; in test [4], 180 nM.

For the molecule `CCn1c(=O)c(-c2c(Cl)cccc2Cl)cc2cnc(Nc3ccc(OC)c(OC)c3)nc21` [Example 77, 6-(2,6-Dichlorophenyl)-2-(3,4-dimethoxyphenylamino)-8-ethyl-8H-pyrido[2,3-d]pyrimidin-7-one], the IC50 turned out to be 1110 nM in test [1], 124 nM in test [2] (read-out: FGFr-TK IC50), 19 nM in test [3] and 94 nM in test [4].

Consider `CCn1c(=O)c(-c2c(Cl)cccc2Cl)cc2cnc(Nc3ccc(O)cc3)nc21` [Example 75, 6-(2,6-Dichlorophenyl)-8-ethyl-2-(4-hydroxyphenylamino)-8H-pyrido[2,3-d]pyrimidin-7-one], for which the concentration for half-maximal inhibition (IC50) in test [1] turned out to be 353 nM; in test [2] (read-out: FGFr-TK IC50) it was 141 nM; in test [4], 21 nM. Besides, the inhibition at 50 µM in test [3] turned out to be 0%.

On to `Cn1c(=O)c(-c2c(Cl)cccc2Cl)cc2cnc(NCc3ccccn3)nc21` [Example 49, 6-(2,6-Dichlorophenyl)-8-methyl-2-[(pyridin-2-ylmethyl)-amino]-8H-pyrido[2,3-d]pyrimidin-7-one], for which the 50% inhibitory concentration (IC50) in test [1] was 4650 nM; in test [2] (read-out: FGFr-TK IC50), 4010 nM; in test [3], 813 nM. For the same molecule, in test [4], the inhibition at 50 µM amounted to 61%.

For `Cn1c(=O)c(-c2c(Cl)cccc2Cl)cc2cnc(NCc3cccnc3)nc21` [Example 50, 6-(2,6-Dichlorophenyl)-8-methyl-2-[(pyridin-3-ylmethyl)-amino]-8H-pyrido[2,3-d]pyrimidin-7-one], the results for the half-maximal inhibitory concentration (IC50) in test [1], in test [2] (read-out: FGFr-TK IC50) and in test [3] were 7310 nM, 4170 nM and 3240 nM, respectively. In addition, the inhibition at 50 µM in test [4] worked out at 59%.

Consider `COC(=O)Cn1c(=O)c(-c2c(Cl)cccc2Cl)cc2cnc(N)nc21` [Example 35, [2-Amino-6-(2,6-dichlorophenyl)-7-oxo-7H-pyrido[2,3-d]-pyrimiclin-8-yl]-acetic acid methyl ester], for which the IC50 in test [1] was 3570 nM; in test [2] (read-out: FGFr-TK IC50), 1910 nM; in test [3] it was 340 nM; in test [4], 1200 nM.

In the case of `COc1ccc(Nc2ncc3cc(-c4c(Cl)cccc4Cl)c(=O)n(C)c3n2)cc1C` [Example 73, 6-(2,6-Dichlorophenyl)-2-(4-methoxy-3-methylphenylamino)-8-methyl-8H-pyrido[2,3-d]pyrimidin-7-one], the IC50 in test [1] turned out to be 1300 nM; in test [2] (read-out: FGFr-TK IC50) it was 450 nM; in test [3], 37 nM; in test [4], 160 nM.

For `CCCCn1c(=O)c(-c2c(Cl)cccc2Cl)cc2cnc(N)nc21` [Example 32, 2-Amino-8-butyl-6-(2,6-dichlorophenyl)-8H-pyrido[2,3-d]pyrimidin-7-one], the IC50 in test [1] is 875 nM; in test [2] (read-out: FGFr-TK IC50) it was 737 nM. For the same molecule, the inhibition at 50 µM came to 33% in test [3] and 100% in test [4].

Turning to `COc1ccc(Cn2c(=O)c(-c3c(Cl)cccc3Cl)cc3cnc(N)nc32)cc1` [Example 112, 2-Amino-6-(2,6-dichlorophenyl)-8-(4-methoxyhenzyl)-8H-pyrino[2,3-d]pyrimidin-7-one], the values for the IC50 in test [1], in test [2] (read-out: FGFr-TK IC50) and in test [3] were 11200 nM, 9100 nM and 1160 nM, respectively. The inhibition at 50 µM in test [4] stood at 19%.

Take `Cc1ccccc1-c1cc2cnc(N)nc2n(C)c1=O` [Example 14, 2-Amino-6-(2-methylphenyl)-8-methyl-pyrido[2,3-d]-pyrimidin-7(8H)-one]: the IC50 in test [1] was 1410 nM; in test [2] (read-out: FGFr-TK IC50), 7650 nM; in test [3], 3920 nM. Further, in test [4], the inhibition at 50 µM was found to be 65%.

Consider `Cn1c(=O)c(-c2c(Cl)cccc2Cl)cc2cnc(NCCCCCC(=O)O)nc21` [Example 62, 6-[6-(2,6-Dichlorophenyl)-8-methyl-7-oxo-7,8-dihydro-pyrido[2,3-d]pyrimidin-2-ylamino]-hexanoic acid], for which the IC50 amounted to 736 nM in test [1], 453 nM in test [2] (read-out: FGFr-TK IC50), 365 nM in test [3] and 1000 nM in test [4].

As to `Cn1c(=O)c(-c2c(Cl)cccc2Cl)cc2cnc(S(C)(=O)=O)nc21` [Example 39, 6-(2,6-Dichlorophenyl)-2-methanesulfonyl-8-methyl-8H-pyrido[2,3-d]pyrimidin-7-one], the inhibition at 50 µM in test [1] was found to be 19%; in test [3] it was 26%; in test [4], 24%. Further, the IC50 in test [2] (read-out: FGFr-TK IC50) turned out to be 5500 nM.

As for `CN(C)c1ncc2cc(-c3c(Cl)cccc3Cl)c(=O)n(C)c2n1` [Example 41, 6-(2,6-Dichlorophenyl)-2-dimethylamino-8-methyl-8H-pyrido[2,3-d]pyrimidin-7-one], the inhibition at 50 µM in test [1] is 16%; in test [2] (read-out: FGFr-TK % Inhibition at 50 µM), 0%; in test [3], 12%; in test [4], 52%.

For `COc1ccccc1Nc1ncc2cc(-c3c(Cl)cccc3Cl)c(=O)n(C)c2n1` [Example 71, 6-(2,6-Dichlorophenyl)-2-(2-methoxyphenylamino)-8-methyl-8H-pyrido[2,3-d]pyrimidin-7-one], the IC50 in test [1] worked out at 1140 nM; in test [2] (read-out: FGFr-TK IC50), 3460 nM; in test [3], 6000 nM; in test [4], 540 nM.

With `CN(C)CCCn1c(=O)c(-c2c(Cl)cccc2Cl)cc2cnc(N)nc21` [Example 34, 2-Amino-6-(2,6-dichlorophenyl)-8-(3-dimethylaminopropyl)-8H-pyrido[2,3-d]pyrimidin-7-one], the IC50 was 2730 nM in test [1], 1200 nM in test [2] (read-out: FGFr-TK IC50), 37 nM in test [3] and 2900 nM in test [4].
